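1) Cells in 96-well plates. 2) Compound, 48 h, 5 concentrations. 3) Linear interpolation between surrounding doses. 4) Unreached endpoint = highest concentration. At the GI50, growth is halved. At the TGI there is no net growth.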
Tests used:
Assay in all cases: inhibition of tumour cell growth, NCI panel, 48 h
[1] = tested on: 786-0 renal
[2] = tested on: A498 renal
[3] = tested on: KM12 colon
[4] = tested on: MOLT-4 leukemia
[5] = tested on: NCI-H226 lung
[6] = tested on: NCI-H460 lung
[7] = tested on: OVCAR-3 ovarian
[8] = tested on: UACC-257 melanoma
[9] = tested on: RXF 393 renal
[10] = tested on: MDA-MB-435

Structure (SMILES)	TGI [1]	TGI [2]	TGI [3]	TGI [4]	TGI [5]	TGI [6]	TGI [7]	TGI [8]	TGI [9]	GI50 [1]	GI50 [2]	GI50 [3]	GI50 [10]	TGI [10]	GI50 [4]	GI50 [5]	GI50 [6]	GI50 [7]	GI50 [8]	GI50 [9]
COc1ccc2c(c1)CC[C@@H]1C2CC[C@]2(C)C(=O)NC(=O)CC12 (some centres undefined)	> 100 µM	> 100 µM	> 100 µM	> 100 µM	> 100 µM	> 100 µM	> 100 µM	> 100 µM	–	–	–	–	–	–	–	–	–	–	–	–
O=[N+]([O-])c1ccc(Cl)c(C2SCc3nc4ccccc4n32)c1 (centres undefined)	> 100 µM	> 100 µM	> 100 µM	> 100 µM	69.1 µM	81.1 µM	> 100 µM	93 µM	> 100 µM	–	–	–	–	–	–	–	–	–	–	–
O=C1C(c2ccccc2)=C(c2ccccc2)C(c2ccc(CCCCCCc3ccc(C4=C(c5ccccc5)C(=O)C(c5ccccc5)=C4c4ccccc4)cc3)cc2)=C1c1ccccc1	> 100 µM	–	> 100 µM	> 100 µM	–	> 100 µM	> 100 µM	> 100 µM	79.7 µM	–	–	–	–	–	–	–	–	–	–	–
O=C(NNS(=O)(=O)c1cc(C(F)(F)F)cc(C(F)(F)F)c1)c1cnn(-c2ccc(Cl)cc2)c1C(F)(F)F	42.2 µM	29.3 µM	39.9 µM	52.3 µM	54.3 µM	37.2 µM	33.4 µM	43.7 µM	–	18.1 µM	14.1 µM	18.5 µM	17 µM	33.2 µM	19.9 µM	20.7 µM	17.2 µM	15.3 µM	15.2 µM	–
O=c1c([Se]c2coc3ccccc3c2=O)coc2ccccc12	32.9 µM	33.6 µM	23.4 µM	48.2 µM	28.2 µM	14 µM	32 µM	31.3 µM	29.5 µM	–	–	–	–	–	–	–	–	–	–	–
COc1cc(Br)c(CC2=NCCc3cc(OC)c(OC)cc32)cc1OC	> 100 µM	76.3 µM	> 100 µM	72.5 µM	> 100 µM	> 100 µM	> 100 µM	70.6 µM	–	–	–	–	–	–	–	–	–	–	–	–
COc1ccccc1/C=C\c1cc(OC)c(OC)c(OC)c1	> 100 µM	54.7 µM	> 100 µM	98.6 µM	96.2 µM	> 100 µM	55.6 µM	> 100 µM	36.6 µM	–	–	–	–	–	–	–	–	–	–	–
COc1ccc(/C=C2\COc3ccc(-c4ccccc4)cc3C2=O)cc1O	15.7 µM	6.1 µM	4.09 µM	83.6 µM	32.9 µM	5.8 µM	4.97 µM	–	–	5.02 µM	2.4 µM	1.75 µM	2.03 µM	15.9 µM	2.34 µM	15.3 µM	2.07 µM	1.76 µM	–	–
COc1ccc(NC(=O)c2cc(OC)c(OC)c(OC)c2)cc1O	> 100 µM	32.9 µM	> 100 µM	> 100 µM	> 100 µM	> 100 µM	–	–	83.9 µM	45.7 µM	2.73 µM	0.792 µM	0.241 µM	0.872 µM	3.42 µM	13.8 µM	3 µM	–	–	3.75 µM
Cn1ccnc1C(=O)/C=C/c1ccc(C(=O)Nc2nc3ccccc3[nH]2)cc1	> 25 µM	> 25 µM	> 25 µM	> 25 µM	–	> 25 µM	17.2 µM	> 25 µM	> 25 µM	4.44 µM	4.71 µM	1.12 µM	2.87 µM	19.8 µM	7.26 µM	–	1.6 µM	0.894 µM	> 25 µM	4.51 µM
CCOC(=O)C(C[Si](C)(C)C)P(=O)(OCC)OCC (centres undefined)	> 100 µM	–	> 100 µM	> 100 µM	> 100 µM	> 100 µM	> 100 µM	> 100 µM	> 100 µM	–	–	–	–	–	–	–	–	–	–	–
COc1ccc(C(=O)C=C2NCCN2)cc1	> 100 µM	> 100 µM	> 100 µM	> 100 µM	> 100 µM	> 100 µM	> 100 µM	> 100 µM	> 100 µM	–	–	–	–	–	–	–	–	–	–	–
COc1cc(C2C(C(=O)Nc3ccccc3)=C(C)NC(C)=C2C(=O)Nc2ccccc2)ccc1O	> 100 µM	> 100 µM	> 100 µM	> 100 µM	> 100 µM	> 100 µM	55.9 µM	> 100 µM	> 100 µM	–	–	–	–	–	–	–	–	–	–	–
O=c1[nH]c(=S)[nH]c(O)c1/C=C1\C=CC=N1	24.8 µM	84.3 µM	39.6 µM	44.3 µM	33.4 µM	65.5 µM	21.8 µM	72.4 µM	9.6 µM	–	–	–	–	–	–	–	–	–	–	–
CC(C)(C)CC(C)(C)c1ccc(OCCOCCSC(=N)N)cc1	3.46 µM	–	3.33 µM	6.17 µM	–	3.29 µM	4.48 µM	3.18 µM	3.59 µM	1.71 µM	–	1.78 µM	1.51 µM	2.84 µM	2.35 µM	–	1.75 µM	2.05 µM	1.69 µM	1.78 µM
c1ccc(-c2nc(N3CCNCC3)c3nc(-c4ccccc4)oc3n2)cc1	3.46 µM	2.76 µM	3.6 µM	–	–	3.38 µM	3.25 µM	3.81 µM	3.48 µM	1.63 µM	1.42 µM	1.91 µM	1.79 µM	3.22 µM	–	–	1.73 µM	1.78 µM	1.93 µM	1.83 µM
C=C1C(C)C2C(Cc3ccccc3)NC(=O)C23C(OC(C)=O)/C=C/C(C)(O)CC(C)C/C=C/C3C1O (centres undefined)	> 100 µM	1.15 µM	> 100 µM	77.2 µM	42.3 µM	> 95.2 µM	> 100 µM	86.5 µM	2.97 µM	–	–	–	–	–	–	–	–	–	–	–
Cc1ccc(NC(=O)C(=O)Cc2nc3ccccc3o2)c(C)c1	> 100 µM	–	> 100 µM	–	> 100 µM	> 100 µM	> 100 µM	> 100 µM	> 100 µM	–	–	–	–	–	–	–	–	–	–	–
CCC1(CN(C)C)CC/C(=C\c2ccc3c(c2)OCO3)C1=O (centres undefined)	> 100 µM	> 100 µM	> 100 µM	> 100 µM	> 100 µM	–	> 100 µM	> 100 µM	> 100 µM	–	–	–	–	–	–	–	–	–	–	–

Source: PubChem BioAssay (NCI)
